Results taken from ChEMBL document CHEMBL1909046, “DrugMatrix in vitro pharmacology data”.

Key:
[1] = DRUGMATRIX: Atrial Natriuretic Factor (ANF) radioligand binding (ligand: [125I] ANF (rat)); format: cell membranes, Cavia porcellus, Dunkin-Hartley, Adrenal gland, Membrane; conditions: Not Active = under 50% inhibition at 10 µM
Calcitonin receptor = target: T1, Calcitonin receptor (Homo sapiens, UniProt P30988); format: cell membranes, Membrane; conditions: t47d; further: in other assays of this panel Not Active means under 50% inhibition at 10 µM
T1 sequence (P30988 whole entry): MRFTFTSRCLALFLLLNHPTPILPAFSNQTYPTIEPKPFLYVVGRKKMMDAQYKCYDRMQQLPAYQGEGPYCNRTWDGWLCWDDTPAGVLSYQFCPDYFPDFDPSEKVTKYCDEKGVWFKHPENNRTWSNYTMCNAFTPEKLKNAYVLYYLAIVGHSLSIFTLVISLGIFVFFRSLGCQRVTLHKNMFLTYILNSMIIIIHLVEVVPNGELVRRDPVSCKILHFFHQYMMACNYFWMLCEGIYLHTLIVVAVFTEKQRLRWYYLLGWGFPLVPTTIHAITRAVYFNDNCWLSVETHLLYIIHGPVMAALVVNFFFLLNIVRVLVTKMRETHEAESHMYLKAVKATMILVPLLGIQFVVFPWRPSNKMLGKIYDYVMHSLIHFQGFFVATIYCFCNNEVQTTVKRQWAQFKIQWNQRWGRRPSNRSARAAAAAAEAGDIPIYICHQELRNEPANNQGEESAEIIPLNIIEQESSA

[2] = target: 5-hydroxytryptamine receptor 2B (Homo sapiens, UniProt P41595); format: cell membranes, CHO-K1, Membrane; conditions: cho-k1; further: in other assays of this panel Not Active means under 50% inhibition at 10 µM
Substance-P receptor = Substance-P receptor (Homo sapiens, UniProt P25103); format: cell membranes, CHO, Membrane; conditions: cho; further: in other assays of this panel Not Active means under 50% inhibition at 10 µM
Substance-K receptor = target: T2, Substance-K receptor (Homo sapiens, UniProt P21452); format: cell membranes, CHO, Membrane; conditions: cho; further: in other assays of this panel Not Active means under 50% inhibition at 10 µM
T2 sequence (P21452 whole entry): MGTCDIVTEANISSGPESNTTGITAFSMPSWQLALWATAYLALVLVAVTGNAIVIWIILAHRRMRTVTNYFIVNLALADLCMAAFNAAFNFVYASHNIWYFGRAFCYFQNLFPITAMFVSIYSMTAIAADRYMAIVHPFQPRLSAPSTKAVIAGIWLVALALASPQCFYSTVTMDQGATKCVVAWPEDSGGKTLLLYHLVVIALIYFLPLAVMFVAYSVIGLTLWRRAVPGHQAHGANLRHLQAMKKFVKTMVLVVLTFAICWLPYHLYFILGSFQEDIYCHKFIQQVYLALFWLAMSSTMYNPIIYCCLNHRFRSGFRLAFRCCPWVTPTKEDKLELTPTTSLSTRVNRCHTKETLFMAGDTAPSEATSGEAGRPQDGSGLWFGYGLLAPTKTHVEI

Carbonic anhydrase 2 = Carbonic anhydrase 2 (Homo sapiens, UniProt P00918); experiment: DRUGMATRIX: Carbonic Anhydrase II enzyme inhibition (substrate: 4-Nitrophenyl acetate (4-NPA)); format: tissue-based, Erythrocyte; conditions: erythrocyte; Not Active = under 50% inhibition at 10 µM
[3] = target: T3, C-X-C chemokine receptor type 1 (Homo sapiens, UniProt P25024); further: in other assays of this panel Not Active means under 50% inhibition at 10 µM
T3 sequence (P25024 whole entry): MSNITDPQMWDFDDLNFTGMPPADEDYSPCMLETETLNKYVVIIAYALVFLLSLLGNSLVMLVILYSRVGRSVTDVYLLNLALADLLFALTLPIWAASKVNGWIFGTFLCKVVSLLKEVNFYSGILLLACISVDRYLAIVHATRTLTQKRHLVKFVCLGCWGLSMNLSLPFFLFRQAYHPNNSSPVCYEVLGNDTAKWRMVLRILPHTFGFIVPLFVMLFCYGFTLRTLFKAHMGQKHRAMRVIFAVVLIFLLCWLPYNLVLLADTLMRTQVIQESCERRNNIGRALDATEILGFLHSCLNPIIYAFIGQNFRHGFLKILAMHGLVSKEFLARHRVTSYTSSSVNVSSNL

[4] = DRUGMATRIX: Glutamate, AMPA radioligand binding (ligand: [3H] AMPA); format: cell membranes, Rattus norvegicus, Wistar, Cerebral cortex, Membrane; conditions: Not Active = under 50% inhibition at 10 µM
[5] = DRUGMATRIX: Glutamate, NMDA, Agonism radioligand binding (ligand: [3H] CGP-39653); format: cell membranes, Rattus norvegicus, Wistar, Cerebral cortex, Membrane; conditions: Not Active = under 50% inhibition at 10 µM
[6] = DRUGMATRIX: Glutamate, NMDA, Phencyclidine radioligand binding (ligand: [3H] TCP); format: cell membranes, Rattus norvegicus, Wistar, Cerebral cortex, Membrane; conditions: Not Active = under 50% inhibition at 10 µM
[7] = target: T4, Cysteinyl leukotriene receptor 1 (Homo sapiens, UniProt Q9Y271); format: cell membranes, CHO-K1, Membrane; conditions: cho-k1; further: in other assays of this panel Not Active means under 50% inhibition at 10 µM
T4 sequence (Q9Y271 whole entry): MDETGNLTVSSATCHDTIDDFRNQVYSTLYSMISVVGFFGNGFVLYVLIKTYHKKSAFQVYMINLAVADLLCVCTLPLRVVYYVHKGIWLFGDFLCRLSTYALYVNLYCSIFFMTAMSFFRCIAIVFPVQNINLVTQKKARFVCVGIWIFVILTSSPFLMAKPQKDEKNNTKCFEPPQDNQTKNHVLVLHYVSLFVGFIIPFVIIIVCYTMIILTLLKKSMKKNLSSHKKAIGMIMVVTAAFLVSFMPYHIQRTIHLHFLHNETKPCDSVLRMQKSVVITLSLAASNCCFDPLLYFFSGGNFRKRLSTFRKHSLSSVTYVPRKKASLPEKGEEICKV

Neutrophil elastase = target: T5, Neutrophil elastase (Homo sapiens, UniProt P08246); format: tissue-based
T5 sequence (P08246 whole entry): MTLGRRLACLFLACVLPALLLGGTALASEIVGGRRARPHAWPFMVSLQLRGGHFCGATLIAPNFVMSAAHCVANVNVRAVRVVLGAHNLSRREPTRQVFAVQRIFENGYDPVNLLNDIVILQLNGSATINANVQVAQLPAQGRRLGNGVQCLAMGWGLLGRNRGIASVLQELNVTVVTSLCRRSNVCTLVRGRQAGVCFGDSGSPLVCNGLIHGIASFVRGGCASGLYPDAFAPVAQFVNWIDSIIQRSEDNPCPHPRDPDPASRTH

[8] = target: Tyrosine-protein kinase Fyn (Homo sapiens, UniProt P06241); experiment: biochemical; format: cell-based, Insect cells
[9] = target: Tyrosine-protein kinase Lck (Homo sapiens, UniProt P06239); experiment: DRUGMATRIX: Protein Tyrosine Kinase, LCK enzyme inhibition (substrate: Poly(Glu:Tyr)); format: cell-based, Insect cells; conditions: insect cells; Not Active = under 50% inhibition at 10 µM
Cytochrome P450 2E1 = Cytochrome P450 2E1 (Homo sapiens, UniProt P05181); conditions: bti-tn-5b1-4; further: in other assays of this panel Not Active means under 50% inhibition at 10 µM
Cytochrome P450 2E1, sequence (P05181 whole entry): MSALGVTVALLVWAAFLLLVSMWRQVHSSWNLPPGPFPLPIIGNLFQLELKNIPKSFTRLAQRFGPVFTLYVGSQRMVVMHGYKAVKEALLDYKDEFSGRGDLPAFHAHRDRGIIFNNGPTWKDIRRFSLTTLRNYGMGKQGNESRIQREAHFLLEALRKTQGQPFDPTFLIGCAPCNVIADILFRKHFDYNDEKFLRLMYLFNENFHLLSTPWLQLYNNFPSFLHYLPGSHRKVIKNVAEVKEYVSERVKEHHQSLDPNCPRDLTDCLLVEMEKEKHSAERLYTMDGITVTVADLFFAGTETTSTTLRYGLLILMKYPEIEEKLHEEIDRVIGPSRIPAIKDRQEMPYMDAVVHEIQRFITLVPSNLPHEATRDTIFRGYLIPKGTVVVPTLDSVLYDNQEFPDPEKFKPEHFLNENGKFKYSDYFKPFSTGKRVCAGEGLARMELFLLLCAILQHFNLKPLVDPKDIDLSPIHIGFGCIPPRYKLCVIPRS

Tyrosine-protein kinase Lck, sequence (P06239 whole entry): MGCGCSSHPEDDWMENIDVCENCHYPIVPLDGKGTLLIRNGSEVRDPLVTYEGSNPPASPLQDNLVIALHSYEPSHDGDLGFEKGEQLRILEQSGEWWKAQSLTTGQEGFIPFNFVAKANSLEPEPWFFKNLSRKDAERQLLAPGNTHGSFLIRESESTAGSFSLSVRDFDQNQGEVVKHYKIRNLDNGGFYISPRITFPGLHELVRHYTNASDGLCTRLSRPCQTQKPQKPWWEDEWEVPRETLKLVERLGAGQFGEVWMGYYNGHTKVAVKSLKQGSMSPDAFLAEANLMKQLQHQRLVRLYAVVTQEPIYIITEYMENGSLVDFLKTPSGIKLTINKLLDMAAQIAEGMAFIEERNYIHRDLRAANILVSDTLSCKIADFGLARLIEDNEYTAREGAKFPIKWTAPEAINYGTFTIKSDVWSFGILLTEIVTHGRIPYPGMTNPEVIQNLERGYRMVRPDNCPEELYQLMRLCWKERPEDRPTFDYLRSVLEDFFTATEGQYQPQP
Substance-P receptor, sequence (P25103 whole entry): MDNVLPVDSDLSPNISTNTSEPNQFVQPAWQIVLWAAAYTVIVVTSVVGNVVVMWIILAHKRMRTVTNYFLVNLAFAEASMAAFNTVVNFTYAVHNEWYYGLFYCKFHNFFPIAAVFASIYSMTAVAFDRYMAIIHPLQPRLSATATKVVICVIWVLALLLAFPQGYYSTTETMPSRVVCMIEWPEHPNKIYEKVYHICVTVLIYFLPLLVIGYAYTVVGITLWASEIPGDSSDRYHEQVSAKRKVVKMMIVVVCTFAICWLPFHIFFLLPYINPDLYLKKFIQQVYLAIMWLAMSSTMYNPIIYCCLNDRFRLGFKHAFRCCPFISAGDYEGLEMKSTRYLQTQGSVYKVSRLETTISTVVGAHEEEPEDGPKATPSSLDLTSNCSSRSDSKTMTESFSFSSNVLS
Tyrosine-protein kinase Fyn, sequence (P06241 whole entry): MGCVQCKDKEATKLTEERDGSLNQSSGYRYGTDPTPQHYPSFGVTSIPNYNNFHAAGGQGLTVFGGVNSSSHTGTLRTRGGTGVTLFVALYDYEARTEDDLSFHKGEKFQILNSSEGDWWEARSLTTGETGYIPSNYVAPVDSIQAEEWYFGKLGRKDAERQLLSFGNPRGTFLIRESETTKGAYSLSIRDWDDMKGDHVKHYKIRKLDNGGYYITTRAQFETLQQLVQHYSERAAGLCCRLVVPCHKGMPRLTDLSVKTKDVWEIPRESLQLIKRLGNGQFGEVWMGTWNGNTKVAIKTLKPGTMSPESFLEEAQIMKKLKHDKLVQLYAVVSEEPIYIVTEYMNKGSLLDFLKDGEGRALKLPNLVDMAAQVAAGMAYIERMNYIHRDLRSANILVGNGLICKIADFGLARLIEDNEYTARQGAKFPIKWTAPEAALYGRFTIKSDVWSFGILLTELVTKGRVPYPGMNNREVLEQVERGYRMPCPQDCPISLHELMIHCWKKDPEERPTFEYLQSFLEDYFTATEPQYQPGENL
5-hydroxytryptamine receptor 2B, sequence (P41595 whole entry): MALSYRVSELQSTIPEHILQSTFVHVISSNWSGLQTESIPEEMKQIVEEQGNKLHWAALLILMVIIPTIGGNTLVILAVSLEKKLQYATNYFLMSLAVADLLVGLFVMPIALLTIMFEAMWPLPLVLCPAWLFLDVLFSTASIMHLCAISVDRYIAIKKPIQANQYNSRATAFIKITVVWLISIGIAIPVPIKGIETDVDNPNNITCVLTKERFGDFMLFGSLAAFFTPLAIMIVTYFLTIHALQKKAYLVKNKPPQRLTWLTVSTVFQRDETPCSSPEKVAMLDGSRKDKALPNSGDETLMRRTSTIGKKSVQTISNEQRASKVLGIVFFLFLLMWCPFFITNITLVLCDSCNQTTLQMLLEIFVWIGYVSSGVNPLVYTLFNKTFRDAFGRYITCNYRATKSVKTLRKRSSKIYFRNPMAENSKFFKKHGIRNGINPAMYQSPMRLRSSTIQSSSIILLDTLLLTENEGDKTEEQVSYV

Compound | IC50 [1] | Ki [1] | IC50 (Calcitonin receptor) | IC50 [2] | IC50 (Substance-P receptor) | IC50 (Substance-K receptor) | IC50 (Carbonic anhydrase 2) | IC50 [3] | IC50 [4] | Ki [4] | IC50 [5] | Ki [5] | IC50 [6] | Ki [6] | IC50 [7] | IC50 (Neutrophil elastase) | IC50 ([8]; insect cells) | IC50 [9] | IC50 (Cytochrome P450 2E1) | Ki (Cytochrome P450 2E1) | other results
NCCCC[C@H](N[C@@H](CCc1ccccc1)C(=O)O)C(=O)N1CCC[C@H]1C(=O)O [LISINOPRIL ANHYDROUS] | Not Active | Not Active | Not Active | Not Active | Not Active | Not Active | Not Active | Not Active | Not Active | Not Active | Not Active | Not Active | Not Active | Not Active | Not Active | Not Active | Not Active | Not Active | Not Active | Not Active | 
CN1[C@@H]2CC[C@H]1C[C@@H](OC(=O)c1c[nH]c3ccccc13)C2 [TROPISETRON] | Not Active | Not Active | Not Active | Not Active | Not Active | Not Active | Not Active | Not Active | Not Active | Not Active | Not Active | Not Active | Not Active | Not Active | Not Active | Not Active | Not Active | Not Active | Not Active | Not Active | 
CC(=O)[C@H]1CC[C@H]2[C@@H]3CCC4=CC(=O)CC[C@]4(C)[C@H]3CC[C@]12C [PROGESTERONE] | Not Active | Not Active | Not Active | Not Active | Not Active | Not Active | Not Active | Not Active | Not Active | Not Active | Not Active | Not Active | Not Active | Not Active | Not Active | Not Active | Not Active | Not Active | Not Active | Not Active | 
C[C@](N)(Cc1ccc(O)cc1)C(=O)O [METYROSINE] | Not Active | Not Active | Not Active | Not Active | Not Active | Not Active | Not Active | Not Active | Not Active | Not Active | Not Active | Not Active | Not Active | Not Active | Not Active | Not Active | Not Active | Not Active | Not Active | Not Active | 
CC1(C)[C@H]2CC[C@]1(C)C(=O)C2 [(-)-CAMPHOR] | Not Active | Not Active | Not Active | Not Active | Not Active | Not Active | Not Active | Not Active | Not Active | Not Active | Not Active | Not Active | Not Active | Not Active | Not Active | Not Active | Not Active | Not Active | Not Active | Not Active | 
C=CC[C@@H]1/C=C(\C)C[C@H](C)C[C@H](OC)[C@H]2O[C@@](O)(C(=O)C(=O)N3CCCC[C@H]3C(=O)O[C@H](/C(C)=C/[C@@H]3CC[C@@H](O)[C@H](OC)C3)[C@H](C)[C@@H](O)CC1=O)[C@H](C)C[C@@H]2OC [TACROLIMUS ANHYDROUS] | Not Active | Not Active | Not Active | Not Active | Not Active | Not Active | Not Active | Not Active | Not Active | Not Active | Not Active | Not Active | Not Active | Not Active | Not Active | Not Active | Not Active | Not Active | Not Active | Not Active | 
CN[C@@H]1[C@@H](O)[C@@H](O[C@@H]2[C@@H](O)[C@H](O[C@H]3OC(CN)=CC[C@H]3N)[C@@H](N)C[C@H]2N)OC[C@]1(C)O [SISOMICIN] | Not Active | Not Active | Not Active | Not Active | Not Active | Not Active | Not Active | Not Active | Not Active | Not Active | Not Active | Not Active | Not Active | Not Active | Not Active | Not Active | Not Active | Not Active |  |  | 
O=C1c2c(O)ccc(O)c2C(=O)c2c(NCCNCCO)ccc(NCCNCCO)c21 [MITOXANTRONE] | Not Active | Not Active | Not Active | Not Active | Not Active | Not Active | Not Active | Not Active | Not Active | Not Active | Not Active | Not Active | Not Active | Not Active | Not Active | Not Active |  | Not Active |  |  | IC50 ([8]; read-out: IC50): 1260 nM
